Experiments:
Carbonic anhydrase 9 = Carbonic anhydrase 9 (Homo sapiens, UniProt Q16790)
Carbonic anhydrase 2 = Carbonic anhydrase 2 (Homo sapiens, UniProt P00918)
Carbonic anhydrase 1 = Carbonic anhydrase 1 (Homo sapiens, UniProt P00915)
Sequence of Carbonic anhydrase 1 (P00915 whole entry): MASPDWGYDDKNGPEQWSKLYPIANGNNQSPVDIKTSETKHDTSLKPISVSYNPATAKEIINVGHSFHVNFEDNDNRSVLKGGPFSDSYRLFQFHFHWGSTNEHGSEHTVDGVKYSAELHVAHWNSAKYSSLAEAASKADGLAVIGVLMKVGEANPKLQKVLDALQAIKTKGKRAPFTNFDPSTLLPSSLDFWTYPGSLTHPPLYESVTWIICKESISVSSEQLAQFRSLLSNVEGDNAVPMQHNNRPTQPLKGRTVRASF

Row | SMILES | Ki (Carbonic anhydrase 9) [nM] | Ki (Carbonic anhydrase 2) [nM] | Ki (Carbonic anhydrase 1) [nM]
1 | NS(=O)(=O)c1ccc(CNC(=O)NC2CC2c2ccccc2)cc1 (centres undefined) | 1840 | 2610 | –
2 | NS(=O)(=O)c1ccc(CCNC(=O)CN2C(=O)c3ccccc3C2=O)cc1 | 290 | – | –
3 | NS(=O)(=O)c1ccc(CCNC(=O)c2sc3ccccc3c2Cl)cc1 | 1070 | – | –
4 | CC1CCN(N(CCCC(=O)Nc2ccc(S(N)(=O)=O)cc2)N2CCC(C)CC2)CC1 | 90 | 265 | –
5 | NS(=O)(=O)c1ccc(CCNC(=S)Nc2ccc(C(=O)O)cc2)cc1 | – | 380 | –
6 | NS(=O)(=O)Oc1ccc(OS(N)(=O)=O)cc1 | – | 643 | –
7 | N#Cc1c(N)n(-c2cccc(S(N)(=O)=O)c2)c2nc3ccccc3nc12 | 300 | – | –
8 | NS(=O)(=O)c1ccc(CNS(=O)(=O)c2ccc(F)cc2)cc1 | 290 | 100 | –
9 | C=CCn1c(SCC(=O)Nc2ccc(S(N)(=O)=O)cc2)nc2sc3c(c2c1=O)CCCC3 | 2750 | 330 | 15000
